Experimental data as given in PubChem BioAssay (NCI).
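Growth conditions: 96-well plates. Treatment: test compound, 48 hours, 5 concentrations. Analysis: linear interpolation between bracketing concentrations; unreached endpoints set to highest concentration. TGI marks complete inhibition of growth.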

Legend:
Assay in all cases: NCI tumour cell line growth inhibition, 48 h
786-0 renal = tested on: 786-0 renal
SK-OV-3 ovarian = tested on: SK-OV-3 ovarian
MDA-MB-231 breast = tested on: MDA-MB-231 breast
A549 NSCLC = tested on: A549 NSCLC
HCT-15 colon = tested on: HCT-15 colon
NCI-H23 lung = tested on: NCI-H23 lung
U251 CNS = tested on: U251 CNS
EKVX NSCLC = tested on: EKVX NSCLC
SK-MEL-5 melanoma = tested on: SK-MEL-5 melanoma
HT29 colon = tested on: HT29 colon
IGROV1 ovarian = tested on: IGROV1 ovarian
SF-268 CNS = tested on: SF-268 CNS
MDA-MB-435 = tested on: MDA-MB-435
OVCAR-8 ovarian = tested on: OVCAR-8 ovarian
HOP-62 NSCLC = tested on: HOP-62 NSCLC
RXF 393 renal = tested on: RXF 393 renal
A498 renal = tested on: A498 renal
SF-295 CNS = tested on: SF-295 CNS
MOLT-4 leukemia = tested on: MOLT-4 leukemia
NCI-H226 lung = tested on: NCI-H226 lung
SF-539 CNS = tested on: SF-539 CNS
COLO 205 colon = tested on: COLO 205 colon
T-47D breast = tested on: T-47D breast
DU-145 prostate = tested on: DU-145 prostate
SN12C renal = tested on: SN12C renal
SNB-19 CNS = tested on: SNB-19 CNS
MCF7 breast = tested on: MCF7 breast
OVCAR-3 ovarian = tested on: OVCAR-3 ovarian
NCI-H460 lung = tested on: NCI-H460 lung
BT-549 breast = tested on: BT-549 breast
MDA-N = tested on: MDA-N
HL-60(TB) leukemia = tested on: HL-60(TB) leukemia
MALME-3M melanoma = tested on: MALME-3M melanoma
SW-620 colon = tested on: SW-620 colon
M14 melanoma = tested on: M14 melanoma
HS 578T breast = tested on: HS 578T breast
SK-MEL-28 melanoma = tested on: SK-MEL-28 melanoma
ACHN renal = tested on: ACHN renal
K-562 leukemia = tested on: K-562 leukemia
HCT-116 colon = tested on: HCT-116 colon
UACC-257 melanoma = tested on: UACC-257 melanoma
SR leukemia = tested on: SR leukemia
KM12 colon = tested on: KM12 colon
NCI-H522 lung = tested on: NCI-H522 lung
TK-10 renal = tested on: TK-10 renal
HCC-2998 colon = tested on: HCC-2998 colon
UACC-62 melanoma = tested on: UACC-62 melanoma
CCRF-CEM leukemia = tested on: CCRF-CEM leukemia
OVCAR-4 ovarian = tested on: OVCAR-4 ovarian
CAKI-1 renal = tested on: CAKI-1 renal
NCI/ADR-RES ovarian = tested on: NCI/ADR-RES ovarian
UO-31 renal = tested on: UO-31 renal
SNB-75 CNS = tested on: SNB-75 CNS
HOP-92 NSCLC = tested on: HOP-92 NSCLC
RPMI-8226 leukemia = tested on: RPMI-8226 leukemia
PC-3 prostate = tested on: PC-3 prostate
LOX IMVI melanoma = tested on: LOX IMVI melanoma
OVCAR-5 ovarian = tested on: OVCAR-5 ovarian
SK-MEL-2 melanoma = tested on: SK-MEL-2 melanoma

## CCCCN(C(=O)c1ccccc1)C1CCC(=O)c2[nH]c3ccccc3c21 (centres undefined)
786-0 renal
  TGI: > 100 µM
SK-OV-3 ovarian
  TGI: > 100 µM
MDA-MB-231 breast
  TGI: > 100 µM
A549 NSCLC
  TGI: > 100 µM
HCT-15 colon
  TGI: > 100 µM
NCI-H23 lung
  TGI: > 100 µM
U251 CNS
  TGI: > 100 µM
EKVX NSCLC
  TGI: > 100 µM
SK-MEL-5 melanoma
  TGI: 49.9 µM
HT29 colon
  TGI: > 100 µM
IGROV1 ovarian
  TGI: > 100 µM
SF-268 CNS
  TGI: > 100 µM
MDA-MB-435
  TGI: > 100 µM
OVCAR-8 ovarian
  TGI: > 100 µM
HOP-62 NSCLC
  TGI: > 100 µM
RXF 393 renal
  TGI: 70 µM
A498 renal
  TGI: > 100 µM
SF-295 CNS
  TGI: > 100 µM
MOLT-4 leukemia
  TGI: > 100 µM
NCI-H226 lung
  TGI: 93.4 µM
SF-539 CNS
  TGI: > 100 µM
COLO 205 colon
  TGI: 48.1 µM
T-47D breast
  TGI: 89.9 µM
DU-145 prostate
  TGI: > 100 µM
SN12C renal
  TGI: > 100 µM
SNB-19 CNS
  TGI: > 100 µM
MCF7 breast
  TGI: > 100 µM
OVCAR-3 ovarian
  TGI: > 100 µM
NCI-H460 lung
  TGI: > 100 µM
BT-549 breast
  TGI: > 100 µM
MDA-N
  TGI: > 100 µM
HL-60(TB) leukemia
  TGI: 29.6 µM
MALME-3M melanoma
  TGI: > 100 µM
SW-620 colon
  TGI: > 100 µM
M14 melanoma
  TGI: > 100 µM
HS 578T breast
  TGI: 51.2 µM
SK-MEL-28 melanoma
  TGI: > 100 µM
ACHN renal
  TGI: > 100 µM
K-562 leukemia
  TGI: > 100 µM
HCT-116 colon
  TGI: > 100 µM
UACC-257 melanoma
  TGI: > 100 µM
SR leukemia
  TGI: 41.4 µM
KM12 colon
  TGI: > 100 µM
NCI-H522 lung
  TGI: > 100 µM
TK-10 renal
  TGI: > 100 µM
HCC-2998 colon
  TGI: > 100 µM
UACC-62 melanoma
  TGI: > 100 µM
CCRF-CEM leukemia
  TGI: > 100 µM
OVCAR-4 ovarian
  TGI: > 100 µM
CAKI-1 renal
  TGI: 84 µM
NCI/ADR-RES ovarian
  TGI: > 100 µM
UO-31 renal
  TGI: > 100 µM
SNB-75 CNS
  TGI: 75.2 µM
HOP-92 NSCLC
  TGI: 84.5 µM
RPMI-8226 leukemia
  TGI: 68.8 µM
PC-3 prostate
  TGI: > 100 µM
LOX IMVI melanoma
  TGI: > 100 µM

## CC(=O)NC(Cc1cnc[nH]1)C(=O)N1CCCC1C(N)=O (centres undefined)
786-0 renal
  TGI: > 100 µM
SK-OV-3 ovarian
  TGI: > 100 µM
MDA-MB-231 breast
  TGI: > 100 µM
A549 NSCLC
  TGI: > 100 µM
HCT-15 colon
  TGI: > 100 µM
NCI-H23 lung
  TGI: > 100 µM
U251 CNS
  TGI: > 100 µM
EKVX NSCLC
  TGI: > 100 µM
SK-MEL-5 melanoma
  TGI: > 100 µM
HT29 colon
  TGI: > 100 µM
IGROV1 ovarian
  TGI: > 100 µM
SF-268 CNS
  TGI: > 100 µM
OVCAR-5 ovarian
  TGI: > 100 µM
MDA-MB-435
  TGI: > 100 µM
OVCAR-8 ovarian
  TGI: > 100 µM
HOP-62 NSCLC
  TGI: > 100 µM
RXF 393 renal
  TGI: > 100 µM
SF-295 CNS
  TGI: > 100 µM
MOLT-4 leukemia
  TGI: > 100 µM
NCI-H226 lung
  TGI: > 100 µM
COLO 205 colon
  TGI: > 100 µM
T-47D breast
  TGI: > 100 µM
DU-145 prostate
  TGI: > 100 µM
SN12C renal
  TGI: > 100 µM
SNB-19 CNS
  TGI: > 100 µM
MCF7 breast
  TGI: > 100 µM
OVCAR-3 ovarian
  TGI: > 100 µM
NCI-H460 lung
  TGI: > 100 µM
BT-549 breast
  TGI: > 100 µM
MDA-N
  TGI: > 100 µM
HL-60(TB) leukemia
  TGI: > 100 µM
MALME-3M melanoma
  TGI: > 100 µM
SW-620 colon
  TGI: > 100 µM
M14 melanoma
  TGI: > 100 µM
HS 578T breast
  TGI: > 100 µM
SK-MEL-28 melanoma
  TGI: > 100 µM
ACHN renal
  TGI: > 100 µM
K-562 leukemia
  TGI: > 100 µM
HCT-116 colon
  TGI: > 100 µM
SR leukemia
  TGI: > 100 µM
KM12 colon
  TGI: > 100 µM
NCI-H522 lung
  TGI: > 100 µM
TK-10 renal
  TGI: > 100 µM
HCC-2998 colon
  TGI: > 100 µM
UACC-62 melanoma
  TGI: > 100 µM
CCRF-CEM leukemia
  TGI: > 100 µM
OVCAR-4 ovarian
  TGI: > 100 µM
CAKI-1 renal
  TGI: > 100 µM
NCI/ADR-RES ovarian
  TGI: > 100 µM
UO-31 renal
  TGI: > 100 µM
SNB-75 CNS
  TGI: > 100 µM
HOP-92 NSCLC
  TGI: > 100 µM
RPMI-8226 leukemia
  TGI: > 100 µM
PC-3 prostate
  TGI: > 100 µM
LOX IMVI melanoma
  TGI: > 100 µM

## N#CC(NCCc1ccccc1)c1ccccc1 (centres undefined)
786-0 renal
  TGI: > 100 µM
SK-OV-3 ovarian
  TGI: > 100 µM
MDA-MB-231 breast
  TGI: > 100 µM
A549 NSCLC
  TGI: > 100 µM
HCT-15 colon
  TGI: > 100 µM
NCI-H23 lung
  TGI: > 100 µM
U251 CNS
  TGI: > 100 µM
EKVX NSCLC
  TGI: > 100 µM
SK-MEL-5 melanoma
  TGI: > 100 µM
HT29 colon
  TGI: > 100 µM
IGROV1 ovarian
  TGI: > 100 µM
SF-268 CNS
  TGI: > 100 µM
OVCAR-5 ovarian
  TGI: > 100 µM
MDA-MB-435
  TGI: > 100 µM
OVCAR-8 ovarian
  TGI: > 100 µM
SK-MEL-2 melanoma
  TGI: > 100 µM
HOP-62 NSCLC
  TGI: > 100 µM
RXF 393 renal
  TGI: > 100 µM
SF-295 CNS
  TGI: > 100 µM
MOLT-4 leukemia
  TGI: > 100 µM
NCI-H226 lung
  TGI: > 100 µM
SF-539 CNS
  TGI: > 100 µM
COLO 205 colon
  TGI: > 100 µM
T-47D breast
  TGI: > 100 µM
DU-145 prostate
  TGI: > 100 µM
SN12C renal
  TGI: > 100 µM
SNB-19 CNS
  TGI: > 100 µM
MCF7 breast
  TGI: > 100 µM
OVCAR-3 ovarian
  TGI: > 100 µM
NCI-H460 lung
  TGI: > 100 µM
BT-549 breast
  TGI: > 100 µM
MDA-N
  TGI: > 100 µM
HL-60(TB) leukemia
  TGI: > 100 µM
MALME-3M melanoma
  TGI: > 100 µM
SW-620 colon
  TGI: > 100 µM
M14 melanoma
  TGI: > 100 µM
HS 578T breast
  TGI: > 100 µM
SK-MEL-28 melanoma
  TGI: > 100 µM
ACHN renal
  TGI: > 100 µM
HCT-116 colon
  TGI: > 100 µM
UACC-257 melanoma
  TGI: > 100 µM
SR leukemia
  TGI: > 100 µM
KM12 colon
  TGI: > 100 µM
NCI-H522 lung
  TGI: > 100 µM
TK-10 renal
  TGI: > 100 µM
HCC-2998 colon
  TGI: > 100 µM
UACC-62 melanoma
  TGI: > 100 µM
CCRF-CEM leukemia
  TGI: > 100 µM
OVCAR-4 ovarian
  TGI: > 100 µM
CAKI-1 renal
  TGI: > 100 µM
NCI/ADR-RES ovarian
  TGI: > 100 µM
UO-31 renal
  TGI: > 100 µM
SNB-75 CNS
  TGI: > 100 µM
HOP-92 NSCLC
  TGI: > 100 µM
RPMI-8226 leukemia
  TGI: > 100 µM
PC-3 prostate
  TGI: > 100 µM
LOX IMVI melanoma
  TGI: > 100 µM
